Test results reported in ChEMBL document CHEMBL5614376, “Discovery of MT-1207: A Novel, Potent Multitarget Inhibitor as a Promising Clinical Candidate for the Treatment of Hypertension” (J Med Chem, 2024).

Assays:
Format in all cases: cell membranes
[1] = target: T1, Alpha-1A adrenergic receptor (Homo sapiens) (UniProt P35348); assay: Displacement of [3H]prazosin from recombinant human alpha 1A adrenoceptor extracted from CHO cell membrane at 1 nM incubated for 60 mins by radioligand binding assay relative to control
T1 sequence (whole entry): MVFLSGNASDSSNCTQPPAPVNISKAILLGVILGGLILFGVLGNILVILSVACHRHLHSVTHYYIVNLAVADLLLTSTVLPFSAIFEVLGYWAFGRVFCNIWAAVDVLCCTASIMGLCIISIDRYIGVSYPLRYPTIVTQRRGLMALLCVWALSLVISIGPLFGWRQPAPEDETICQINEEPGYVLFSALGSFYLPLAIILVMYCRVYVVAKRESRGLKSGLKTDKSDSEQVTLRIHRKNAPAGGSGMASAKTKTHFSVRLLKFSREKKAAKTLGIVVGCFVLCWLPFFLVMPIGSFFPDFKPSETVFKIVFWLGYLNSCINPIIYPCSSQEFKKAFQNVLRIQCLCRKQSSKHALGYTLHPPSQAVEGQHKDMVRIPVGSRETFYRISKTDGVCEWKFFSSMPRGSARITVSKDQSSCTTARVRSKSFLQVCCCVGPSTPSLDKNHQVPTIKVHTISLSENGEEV

[2] = target: T1, Alpha-1A adrenergic receptor (Homo sapiens); assay: Displacement of [3H]prazosin from recombinant human alpha 1A adrenoceptor extracted from CHO cell membrane at 10 nM incubated for 60 mins by radioligand binding assay relative to control
[3] = target: T1, Alpha-1A adrenergic receptor (Homo sapiens); assay: Displacement of [3H]prazosin from recombinant human alpha 1A adrenoceptor extracted from CHO cell membrane at 100 nM incubated for 60 mins by radioligand binding assay relative to control; settings: filed as antagonist
[4] = target: T2, 5-hydroxytryptamine receptor 2A (Homo sapiens, UniProt P28223); assay: Displacement of [3H]Ketanserin from recombinant human 5-HT2A receptor extracted from CHO cell membrane at 10 nM incubated for 60 mins by radioligand binding assay relative to control
[5] = target: T2, 5-hydroxytryptamine receptor 2A; assay: Displacement of [3H]Ketanserin from recombinant human 5-HT2A receptor extracted from CHO cell membrane at 100 nM incubated for 60 mins by radioligand binding assay relative to control
[6] = target: T2, 5-hydroxytryptamine receptor 2A; assay: Displacement of [3H]Ketanserin from recombinant human 5-HT2A receptor extracted from CHO cell membrane at 1 nM incubated for 60 mins by radioligand binding assay relative to control

T2 sequence (P28223 whole entry): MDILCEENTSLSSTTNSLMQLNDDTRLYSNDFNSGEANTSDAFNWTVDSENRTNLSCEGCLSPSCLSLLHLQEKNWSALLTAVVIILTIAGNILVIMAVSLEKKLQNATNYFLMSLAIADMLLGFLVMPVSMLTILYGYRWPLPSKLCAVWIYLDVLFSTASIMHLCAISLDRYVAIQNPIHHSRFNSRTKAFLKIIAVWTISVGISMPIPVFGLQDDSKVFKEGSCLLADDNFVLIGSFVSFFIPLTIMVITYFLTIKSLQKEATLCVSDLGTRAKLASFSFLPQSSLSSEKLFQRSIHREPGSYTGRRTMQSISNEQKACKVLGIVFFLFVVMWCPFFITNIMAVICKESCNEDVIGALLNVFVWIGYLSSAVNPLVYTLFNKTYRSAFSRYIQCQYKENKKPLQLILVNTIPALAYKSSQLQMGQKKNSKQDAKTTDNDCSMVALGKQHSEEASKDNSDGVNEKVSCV

| Compound | inhibition ([1]; filed as antagonist) [%] | inhibition ([2]; filed as antagonist) [%] | inhibition [3] [%] | inhibition ([4]; filed as antagonist) [%] | inhibition ([5]; filed as antagonist) [%] | inhibition [1] [%] | inhibition [2] [%] | inhibition [5] [%] | inhibition [6] [%] | inhibition [4] [%] | inhibition ([6]; filed as antagonist) [%] |
| --- | --- | --- | --- | --- | --- | --- | --- | --- | --- | --- | --- |
| c1ccc2c(c1)nnn2OCCCN1CCN(c2nsc3ccccc23)CC1 | 44.2 | 82.3 | 93.7 | 81.3 | 100 |  |  |  |  |  |  |
| c1ccc(N2CCN(CCCCn3nnc4ccccc43)CC2)cc1 |  |  | 79.6 |  |  | -9.51 | 35 | 39.2 |  |  |  |
| Fc1ccc2ncn(CCCCN3CCN(c4cccc(C(F)(F)F)c4)CC3)c2c1 |  |  | 79.7 |  |  | -7.67 | 34.7 | 26.1 |  |  |  |
| Fc1ccc2c(C3CCN(CCCCn4cnc5ccccc54)CC3)noc2c1 | 80.7 | 100 | 100 | 81.9 | 96 |  |  |  | -3.85 |  |  |
| c1ccc2c(c1)nnn2CCCCN1CCN(c2noc3ccccc23)CC1 | 85.9 | 99.2 | 100 |  | 88.8 |  |  |  |  | 38.3 |  |
| COc1ccccc1N1CCN(CCCOc2cccc(C)c2C)CC1 |  |  | 40.1 |  |  |  | 7.19 | 37.7 |  |  |  |
| Clc1cccc(N2CCN(CCCCn3cnc4ccccc43)CC2)c1 |  | 71.6 | 98.5 |  | 67.2 | 15.4 |  |  |  | -1.87 |  |
| FC(F)(F)c1cccc(N2CCN(CCCCn3nnc4ccccc43)CC2)c1 |  |  | 72.5 |  | 63.4 | -5.08 | 38 |  |  | 0 |  |
| c1ccc2c(c1)nnn2CCCN1CCN(c2nsc3ccccc23)CC1 | 44.5 | 82.6 | 96.4 | 89.4 | 98.5 |  |  |  | 8.15 |  |  |
| c1ccc2c(c1)ncn2CCCCN1CCN(c2nsc3ccccc23)CC1 | 78 | 98.9 | 99.8 | 93.4 | 99.6 |  |  |  | 15.4 |  |  |
| c1ccc2nn(CCCCN3CCN(c4noc5ccccc45)CC3)nc2c1 | 69.5 | 94 | 99 |  | 84.9 |  |  |  |  | 5.31 |  |
| FC(F)(F)c1cccc(N2CCN(CCCCCCn3nnc4ccccc43)CC2)c1 |  |  | 63.3 |  | 53.5 |  | 4.15 |  | -9.54 | 11.3 |  |
| Fc1ccc2c(C3CCN(CCCn4nc5ccccc5n4)CC3)noc2c1 |  | 83.2 | 99 | 98.7 | 98.3 | 28.9 |  |  |  |  | 79.7 |
| Fc1ccc2c(C3CCN(CCCCn4nc5ccccc5n4)CC3)noc2c1 | 83.4 | 99.9 | 99.9 | 82 | 98.9 |  |  |  | -5.42 |  |  |
| COc1ccccc1N1CCN(CCCCn2cnc3ccccc32)CC1 |  |  | 86.9 |  | 68.7 | -0.88 | 22.8 |  |  | -4.99 |  |
| Cc1nc2ccccc2n1CCCCN1CCN(c2cccc(C(F)(F)F)c2)CC1 |  | 79.8 | 98.9 |  |  | 6.89 |  | -5.62 |  |  |  |
| COc1cccc(N2CCN(CCCCn3cnc4ccccc43)CC2)c1 |  | 55 | 95.6 |  |  | -1.06 |  | 13.1 |  |  |  |
| Fc1ccc2c(C3CCN(CCCCn4nnc5ccccc54)CC3)noc2c1 | 93.8 | 100 | 101 | 89.5 | 98.2 |  |  |  | 39.9 |  |  |
| Fc1ccc2c(N3CCN(CCCCn4cnc5ccccc54)CC3)noc2c1 | 89.6 | 100 | 101 | 83.1 | 97 |  |  |  | 22.6 |  |  |
| Fc1ccc2c(N3CCN(CCCn4nnc5ccccc54)CC3)noc2c1 | 46 | 86.2 | 95.3 | 80.9 | 95.8 |  |  |  |  |  |  |
| FC(F)(F)c1cccc(N2CCN(CCCCCn3nnc4ccccc43)CC2)c1 |  |  | 75.3 |  | 71.4 |  | 13 |  |  | 7.37 |  |
| Fc1ccc2c(C3CCN(CCCn4cnc5ccccc54)CC3)noc2c1 | 69.7 | 97.5 | 99.9 | 76 | 94.2 |  |  |  | 15.9 |  |  |
